Test results as given in US20250210201A1 (priority 2022, published 2025).

How the values were obtained:
[1] = target: T1, complex II (Rattus norvegicus, UniProt P21913+Q641Z9+Q6PCT8+Q920L2); conditions: rat PD model; Jiang X et al. 2016; cited from earlier work
T1 construct: host or cells: rat PD model

[2] = system: primary skin fibroblasts; conditions: uncoupler as positive control (50 μM per method), 30 minutes
Experimental: Primary skin fibroblasts (10,000 cells per well) were seeded into Cell Carrier Ultra 96-well plates. The next day, fibroblast medium was removed and replaced by FBS-deprived DMEM containing 100 nM Tetramethylrhodamine, Ethyl Ester, Perchlorate (TMRE), a fluorescent dye that specifically accumulates in active, polarized mitochondria, or vehicle only (DMSO). The mitochondrial OXPHOS (OXPHOS-mito) uncoupler carbonyl cyanide m-chlorophenyl hydrazone (CCCP) was used—at the concentration of 50 μM—as a positive control of TMRE staining. Nuclei were stained with 1 μg/ml Hoechst 33342. Cells were incubated in the dark at 37° C. for 30 minutes before proceeding with high-throughput automated confocal microscopy analysis. Z-stack images were acquired at 20× magnification using the CellVoyager CV8000 High-Content Screening System.
An in-house Matlab image processing pipeline was used to quantify TMRE signal. The mitochondria channel was sum-projected on the x-y plane and preprocessed using a DoG filter of 33 pixel side-length, and sigmas set to 1 and 1.5 pixels, prior to thresholding (>10). Connected components with less than 6 pixels were removed from mitochondrial analysis. Total mitochondrial TMRE fluorescence intensity per field was normalized to nuclear area. […] Nine fields per well and at least two wells per condition were assessed for each of the three independent biological replicates.

[3] = system: mitochondiral complex I, II and IV; conditions: Kumar M et al. 2020; worded as 'proposed'; cited from earlier work
[4] = system: Complex I; conditions: rat model; Amarsanaa K et al. 2021; cited from earlier work

T1 sequence (Q920L2 35-656): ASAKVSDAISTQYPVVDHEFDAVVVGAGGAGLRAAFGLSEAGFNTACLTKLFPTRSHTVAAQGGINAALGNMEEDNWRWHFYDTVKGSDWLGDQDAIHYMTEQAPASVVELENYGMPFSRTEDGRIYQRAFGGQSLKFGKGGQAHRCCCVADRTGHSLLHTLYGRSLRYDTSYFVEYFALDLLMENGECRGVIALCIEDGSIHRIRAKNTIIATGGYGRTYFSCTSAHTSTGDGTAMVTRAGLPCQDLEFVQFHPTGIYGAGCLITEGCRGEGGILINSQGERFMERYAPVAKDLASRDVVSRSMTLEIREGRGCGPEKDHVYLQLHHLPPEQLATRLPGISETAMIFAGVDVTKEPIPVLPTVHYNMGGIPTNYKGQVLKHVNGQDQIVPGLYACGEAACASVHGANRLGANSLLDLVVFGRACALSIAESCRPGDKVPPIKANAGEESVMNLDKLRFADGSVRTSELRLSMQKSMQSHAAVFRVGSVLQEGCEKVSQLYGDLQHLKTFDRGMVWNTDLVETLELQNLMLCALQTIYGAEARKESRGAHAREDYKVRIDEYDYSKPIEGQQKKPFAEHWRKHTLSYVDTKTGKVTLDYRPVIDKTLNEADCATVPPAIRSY
T1 sequence (P21913 31-282): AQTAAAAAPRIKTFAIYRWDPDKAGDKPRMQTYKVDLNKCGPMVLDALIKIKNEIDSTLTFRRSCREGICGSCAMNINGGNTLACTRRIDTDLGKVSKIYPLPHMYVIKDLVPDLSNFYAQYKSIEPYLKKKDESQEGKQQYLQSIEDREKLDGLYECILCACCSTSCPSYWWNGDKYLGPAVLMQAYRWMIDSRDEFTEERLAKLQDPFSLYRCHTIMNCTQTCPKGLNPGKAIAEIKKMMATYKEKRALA
T1 sequence (Q641Z9 1-169): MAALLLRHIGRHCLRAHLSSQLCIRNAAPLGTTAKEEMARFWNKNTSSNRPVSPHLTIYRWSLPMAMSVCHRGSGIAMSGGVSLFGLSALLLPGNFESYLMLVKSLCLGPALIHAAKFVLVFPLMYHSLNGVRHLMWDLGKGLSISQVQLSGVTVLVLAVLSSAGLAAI
T1 sequence (Q6PCT8 57-159): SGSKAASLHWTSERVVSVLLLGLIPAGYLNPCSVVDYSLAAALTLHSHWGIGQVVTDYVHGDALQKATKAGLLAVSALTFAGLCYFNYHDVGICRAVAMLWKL

SMILES: COc1ccc(Cn2cc(-c3cc(C(F)(F)F)nc(S(C)(=O)=O)n3)ccc2=O)cc1OC [Compound A, 1-(3,4-dimethoxybenzyl)-5-(2-(methylsulfonyl)-6-(trifluoromethyl)pyrimidin-4-yl) pyridin-2 (1H)]
- dopaminergic neurons' death [1]: preventing dopaminergic neurons' death

SMILES: N#CC(C#N)=NNc1ccc(OC(F)(F)F)cc1 [FCCP, carbonyl cyanide p-trifluoromethoxyphenyl hydrazone]
- TMRE fluorescence (mitochondrial membrane potential, Δψm) [2]: robust reduction of TMRE fluorescence

SMILES: [Na+].[SH-] [NaHS]
- complex I, II and IV mediated oxygen consumption rate [3]: increasing mitochondiral complex I, II and IV mediated oxygen consumption rate

SMILES: COc1ccc(-c2cc(=O)c3c(OC)c(OC)c(OC)c(OC)c3o2)cc1OC [Nobiletin, 5,6,7,8,3′,4′-hexamethoxyflavone]
- activity of complex I [4]: restore activity of complex I
